The METLIN SMRT retention time set (Domingo-Almenara et al. 2019)

Assay: gradient 5% acetonitrile 3 min, to 50% in 2 min, to 85% in 15 min, held 3 min, 100 µL/min
Conditions: column: Zorbax Extend-C18 2.1 x 50 mm; eluents: water / acetonitrile, 0.1% formic acid
Procedure, shortened: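 A Zorbax Extend-C18 column (2.1 × 50 mm, 1.8 μm) run at 100 μL/min with water and acetonitrile, both containing 0.1% formic acid, separated mixtures of ~100 pure standards. The HPLC was coupled to a quadrupole time-of-flight mass spectrometer operated in positive and negative ionization mode, with dead and dwell volumes of 40 μL and 900 μL. Each retention time was taken from a computationally picked adduct peak that was then manually inspected.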

Row | RP-LC retention time [s] | Structure (SMILES)
1 | 612 | COc1ccc(Cl)cc1Nc1nc(N)nc(CN2CCN(c3ccccn3)CC2)n1
2 | 753 | Cc1ccc(-c2nc3cnccn3c2Nc2ccc(C(=O)NCc3ccco3)cc2)cc1
3 | 820 | Cc1ccc2c(c1)C(=O)NC1(CCN(C(=O)Cc3ccccc3C)CC1)N2C
4 | 847 | Cc1noc(-c2nn(C)c3c2CN(C(=O)Nc2ccc(C(F)(F)F)cc2)CC3)n1
5 | 628 | CCc1ccccc1NC(=O)N1CCC(n2cnnc2C2CC2)C1 (stereo not given)
6 | 950 | CCCC(C)NC(=O)CN1c2ccc(F)cc2-c2ccccc2S1(=O)=O (stereo not given)
7 | 1110 | CCn1nnc(NCc2ccc(-c3cc(Cl)ccc3Cl)o2)n1
8 | 964 | Cc1c(Cl)cccc1NC(=O)C(=O)NC1CCCC1
9 | 652 | Cc1ccccc1CC(=O)N1CCC(n2c(=O)n(C)c3cncnc32)C1 (stereo not given)
10 | 777 | CCN1CCC[C@H]1CNC(=O)c1c(O)c(Cl)cc(Cl)c1OC
11 | 1000 | CCc1cc(=O)n(CC(=O)NCc2ccc3c(c2)OCO3)c(-c2ccccc2)n1
12 | 1040 | Cc1ccc(-c2noc(Cc3nc(-c4ccc(Cl)cc4)cs3)n2)cc1
13 | 857 | Cc1ccc(NC(=O)Cn2nc(N(C)C)c3ccccc3c2=O)cc1
14 | 668 | CC(C)Cn1c(=O)c(N2CCN(C(=O)NCc3ccc(F)cc3)CC2)nc2ccncc21
15 | 634 | CC(C)(C)c1ccc(C(=O)N2CCc3nc[nH]c3C2)cc1
16 | 699 | CCOc1ccccc1-n1ccn(Cc2nc(-c3ccc(C(C)(C)C)cc3)no2)c(=O)c1=O
17 | 629 | CC(=O)Nc1onc(C)c1-c1ccc(C)c(S(=O)(=O)N2CCN(C3CCCCC3)CC2)c1
18 | 831 | Cc1nc(OCC(=O)Nc2ccc(Cl)cc2Cl)c2ccccc2n1
19 | 654 | Cc1csc(CN2CCN(C(=O)c3cc(Cl)ccc3Cl)CC2)n1
20 | 805 | CC(C)N1CCn2cc(S(=O)(=O)Nc3cccc(Cl)c3)cc2C1=O
21 | 714 | Cc1ccccc1-c1nc2cnccn2c1NCCC(=O)NCc1ccc(F)c(Cl)c1
22 | 630 | O=C(Nc1ccc2cn[nH]c2c1)C1CN(c2nc3ccccc3s2)C1
23 | 614 | CO[C@@H](C(=O)N1Cc2[nH]nc(NC(=O)c3ccc(N4CCN(C)CC4)cc3)c2C1)c1ccccc1

Row | RP-LC retention time [s] | Structure (SMILES)
24 | 608 | CC(C)CN1CCn2cc(C(=O)NCc3cc(F)ccc3F)nc2C1
25 | 650 | COc1ccc(-c2nc(C)cc(C)c2CNS(=O)(=O)c2ccccc2F)cc1
26 | 803 | O=C1COc2ccc(S(=O)(=O)N3CCC(C(=O)Nc4ccc(C(F)(F)F)cc4)CC3)cc2N1
27 | 930 | Cc1ccc(CNC(=O)Cn2cnc3c(c(C)c(C)n3-c3ccc(Cl)cc3)c2=O)o1
28 | 1280 | Cc1ccc(S(=O)(=O)c2cnc(N3CCN(c4ccccc4Cl)CC3)nc2N)cc1C
29 | 620 | Cc1cc(OCC(=O)NCc2ccccc2Cl)nc(N2CCCC2)n1
30 | 875 | COc1ccc(-c2cn3c(CC(=O)N(Cc4cccs4)C4CCCC4)csc3n2)cc1OC
31 | 648 | CC(C)n1c(=O)sc2cc(S(=O)(=O)N3CCC(C(=O)NCCN4CCCC4)CC3)ccc21
32 | 801 | CCCN1C(=O)C2CCC(=O)N2c2ccc(C(=O)NC(C)c3ccccc3)cc21 (stereo not given)
33 | 718 | COCCc1nnc(NC(=O)C2c3ccccc3Oc3ccccc32)o1
34 | 779 | Cc1ccc(CNC(=O)CN2CCN(Cc3ccccc3C)C(=O)C2=O)cc1
35 | 544 | Cc1ccn2c(=O)c(NC(=O)c3ccco3)c(C)nc2c1
36 | 983 | COCCN(Cc1ccc(Cl)cc1)Cc1cc(=O)c2cccc(F)c2[nH]1
37 | 577 | Cc1ccc(C(=O)N2CC[C@H](CO)[C@H](N(C)C)C2)s1
38 | 780 | CCOc1cc(C(=O)Nc2cc(-c3cn4cccnc4n3)ccc2C)cc(OCC)c1OCC
39 | 567 | Cc1nc(-c2nnc(NC(=O)c3cnccn3)o2)cs1
40 | 966 | O=c1ccc(-c2ccc3c(c2)OCO3)nn1CCc1nc(-c2ccccc2Cl)no1
41 | 1050 | Cc1ccc(NC(=O)N2CCCC2c2nc(-c3ccc(F)cc3F)no2)cc1C (stereo not given)
42 | 750 | Cc1ccc(NC(=O)N2CCC(c3nc(CCNC(=O)C(C)C)cs3)CC2)cc1
43 | 761 | COc1ccc(CN2CC3(CCN(S(=O)(=O)c4c(C)nn(C)c4C)CC3)C2=O)cc1
44 | 534 | O=C(CCNc1cnc2cnccn12)Nc1ccc(N2CCOCC2)cc1
45 | 1020 | Cc1ccc(-c2noc(CN3N=NC4C(=O)N(c5ccc(F)cc5)C(=O)C43)n2)cc1 (stereo not given)
46 | 800 | CC(C)n1nc(CNC(=O)c2ccsc2)c2ccccc21

Row | RP-LC retention time [s] | Structure (SMILES)
47 | 638 | CN1CCN(Cc2nc(-c3ccc(N(C)Cc4ccccc4)nc3)no2)CC1
48 | 636 | CCn1nc(C)c(CCNC(=O)c2ccc3c(c2)NC(=O)C2CCCCN32)c1C (stereo not given)
49 | 797 | CCn1cnc2ccc(-c3noc(-c4cc(OC)cc(OC)c4)n3)cc21
50 | 614 | CN1CCCc2cc(CCNC(=O)c3c(F)cccc3F)ccc21
51 | 622 | Cc1cn(C)nc1C(=O)Nc1nnc(-c2ccco2)o1
52 | 1050 | CCN1C(=O)c2ccccc2Oc2ccc(C(=O)NC3CCCCCC3)cc21
53 | 565 | CCn1c(=O)c(=O)n(CC(=O)NCCN2CCCCC2)c2cccnc21
54 | 669 | O=C(Nc1cccc(Cl)c1)c1nnc(CCCC(=O)N2CCN(c3ccccn3)CC2)s1
55 | 1060 | COC(=O)c1ccc2c(=O)n(Cc3ccc(F)cc3)c(N3CCCC3)nc2c1
56 | 715 | CCCNC(=O)C1CCCN(c2nc3ncn(CC(=O)Nc4ccc(C)c(C)c4)c(=O)c3s2)C1 (stereo not given)
57 | 638 | COc1ccccc1C(=O)Nc1ccc2nc(N3CCN(C4CCCCC4)CC3)cc(C(=O)O)c2c1
58 | 602 | Cc1nc(Nc2ccc(Cl)cn2)sc1C(=O)NCCN(C)C
59 | 832 | CC(NC(=O)CCCn1c(=O)c2cccn2c2ccc(Br)cc21)C(=O)N1CCCCC1 (stereo not given)
60 | 688 | COc1ccccc1CNC(=O)C1CCCN(c2nnc3cccc(C)n23)C1 (stereo not given)
61 | 707 | COc1ccc(CN(CCN(C)C)c2ncccn2)cc1
62 | 959 | COc1cccc(-c2nc(-c3ccc4c(c3)oc(=O)n4C)no2)c1OC
63 | 996 | Fc1cccc(Cn2cc(-c3noc(-c4ccc5cc[nH]c5c4)n3)nn2)c1
64 | 886 | C=Cc1ccc(Cn2cc(S(=O)(=O)N3CCCC3)ccc2=O)cc1
65 | 1050 | Cc1ccc2ncn(C3CCN(S(=O)(=O)c4cc(C)c(C)cc4C)CC3)c(=O)c2c1
66 | 911 | COc1ccccc1N1CCN(c2ncc(C(=O)O)c(C(C)C)n2)CC1
67 | 980 | CCOc1ccccc1NC(=O)c1ccc(=O)n(Cc2ccccc2)n1
68 | 1460 | O=C(Nc1nc(-c2ccccc2)c(-c2ccccc2)s1)c1ccc(Br)s1
69 | 826 | CN1C(=O)c2cc(C(=O)NCCCc3ccccc3)nn2CC1(C)C(=O)NC1CCCC1 (stereo not given)

Row | RP-LC retention time [s] | Structure (SMILES)
70 | 702 | CCCCN(C)c1ncc(C(=O)Nc2ccccc2)c(N)n1
71 | 1070 | COc1ccc(-c2nnc(-c3ccc(Cl)c(S(=O)(=O)N4CCCCC4)c3)o2)cc1OC
72 | 567 | O=C(CN1CCCCCC1)NCC12CCCC=C1NC(=O)CC2 (stereo not given)
73 | 732 | Cc1cc(C(=O)NCCCN2CCCC2=O)c2c(C)nn(-c3ccccc3)c2n1
74 | 641 | COC(=O)CC(=O)Nc1cc2c(cc1N1CCCCC1)n(C)c(=O)n2C
75 | 697 | COc1ccc(C(C)NC(=O)Cn2c(=O)nc(-c3ccccc3)c3ccccc32)cc1OC (stereo not given)
76 | 626 | C=CCNC(=O)c1ccc2nc(C)c(C)nc2c1
77 | 1080 | Cc1nc(-c2ccc3c(c2)CCN3C(=O)COc2ccc(Cl)cc2)cs1
78 | 591 | O=C(CSc1ncn[nH]1)Nc1ccc2c(c1)OCCO2
79 | 1040 | Cc1ccc(CN2C(=O)CN(S(=O)(=O)c3ccccc3)CC2(C)C(=O)NCCC(C)C)cc1 (stereo not given)
80 | 749 | N#Cc1ccc(C(=O)N2CCN(c3cc(-c4cccs4)[nH]n3)CC2)cc1
81 | 683 | O=C(c1ccc(Cl)cc1)N1CCN(c2cnn3c(C4CC4)nnc3c2)CC1
82 | 936 | COc1ccc(C2Cn3nnc(-c4nc(C(C)C)no4)c3CO2)cc1 (stereo not given)
83 | 836 | Cc1cc(-c2nnc(C3CCC3)o2)c(C)n1CC(=O)Nc1ccc2c(c1)OCCO2
84 | 958 | COc1ccc(CNC(=O)c2sc(-c3cn(C)c4ncccc34)nc2C)cc1
85 | 799 | Cn1c(=O)c(N2CCC(NC(=O)NCc3ccccc3)CC2)nc2ccccc21
86 | 641 | CCCCN(C)CCNC(=O)c1cc2cc3ccc(OC)cc3nc2o1
87 | 846 | O=C(CN1C(=O)NC2(CCCCC2)C1=O)Nc1ccc2c(c1)CCC2
88 | 1380 | COc1cc(Cl)c(C)cc1NC(=O)C1CCCN(c2nc3ccccc3nc2OC)C1 (stereo not given)
89 | 720 | Nc1nc2c(C(F)(F)F)cccc2s1

Row | Structure (SMILES) | RP-LC retention time [s]
90 | COc1ccc(-c2cn3c(CC(=O)N4CCN(C5CCCCC5)CC4)csc3n2)cc1OC | 594
